What all share (test): DTP human tumour cell line panel, 48 h
Assay [1] concerns A549.
Assay [2] concerns COLO 205.
For assay [3], the system named is CCRF-CEM.
Assay [4] concerns SK-MEL-28.
The test system of assay [5] is UO-31.
Assay [6] deals with UACC-257.
For assay [7], the system named is NCI/ADR-RES.
Assay [8] relates to SK-MEL-2.
In assay [9] the test system is Hs-578T.
The subject of assay [10] is SF-539.
In assay [11] the test system is NCI-H460.
The subject of assay [12] is T47D.
The subject of assay [13] is KM12.
For assay [14], the system named is TK-10.
Assay [15] deals with OVCAR-5.
Assay [16] has as its system DU-145.
The subject of assay [17] is CAKI-1.
Assay [18] relates to SK-MEL-5.
The subject of assay [19] is OVCAR-3.
The test system of assay [20] is RPMI-8226.

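How tested: cells in 96-well plates exposed to compound for 48 hours at five concentrations. GI50 is the concentration that inhibits growth by half.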 Activity calls are given as the source filed them. No stated cut-off is given here; in the data, active = GI50 up to about 1.1 µM and inactive = higher. Where only a bound is given, the exact number is not on record here.

Usually GI50 stands for the concentration at which growth is held to half of that of the control.

Consider `CN1CCN(Cc2nc3cccc4c3c([n+]2[O-])-c2ccccc2-4)CC1`, for which the GI50 was 14.8 µM (inactive) in [1]; 16.9 µM (inactive) in assay [2]; 25.9 µM (inactive) in assay [3]; 31.7 µM (inactive) in [4]; 20 µM (inactive) in assay [5]; 24.4 µM (inactive) in assay [6]. The GI50 in assay [7] was 10.6 µM (inactive); in assay [8], 23.1 µM (inactive); in assay [9], 34.9 µM (inactive); in assay [10], 25.4 µM (inactive); in assay [11], 17.8 µM (inactive); in [12], 29.3 µM (inactive). Besides, the GI50 was 27.4 µM (inactive) in [13]; 43.5 µM (inactive) in assay [14]; > 34.2 µM (inactive) in assay [15]; 14.9 µM (inactive) in assay [16]; 25.5 µM (inactive) in assay [17]; 19.1 µM (inactive) in assay [18]. The GI50 in [19] is 37.8 µM (inactive); in assay [20] it was 20.7 µM (inactive).
On to `CCCC(=O)O[C@H]1C=C2C[C@@]34SS[C@]5(CC6=C[C@H](OC(C)=O)[C@@H]7O[C@@H]7[C@H]6N5C3=O)C(=O)N4[C@@H]2[C@H]2O[C@H]21`, for which the GI50 in assay [1] is 0.0311 µM (active); in assay [2], 0.0137 µM (active); in [3] it was 0.0116 µM (active); in assay [4], 0.0251 µM (active); in [5] it was 0.059 µM (active); in [6] it was 0.0181 µM (active). In addition, the GI50 in assay [7] is 0.0128 µM (active); in assay [8] it was 0.0552 µM (active); in assay [9] it was 0.0203 µM (active); in [10], 0.0194 µM (active); in assay [11], 0.0218 µM (active); in [12] it was 0.0256 µM (active). Besides, the GI50 in assay [13] is 0.184 µM (active); in assay [14], 0.0347 µM (active); in assay [15] it was 0.0112 µM (active); in assay [16] it was 0.0356 µM (active); in assay [17], 0.0175 µM (active); in assay [18], 0.12 µM (active). Also, the GI50 in assay [19] is 0.00738 µM (active); in [20], 0.00524 µM (active).
As to `CCCCCCCCCCCCCCCC(=O)N(CCCCCCCCCCC(=O)O)CC(O)C(O)C(OC1OC(CO)C(O)C(O)C1O)C(O)CO` (stereo not given), the GI50 was > 100 µM (inactive) in assay [1]; 18.4 µM (inactive) in assay [2]; 26.5 µM (inactive) in [3]; 18.5 µM (inactive) in assay [4]; 35.1 µM (inactive) in [5]; 22 µM (inactive) in [6]. Besides, the GI50 in assay [7] was 25.7 µM (inactive); in assay [8] it was 19 µM (inactive); in [9] it was 40.5 µM (inactive); in assay [10] it was 21.3 µM (inactive); in [11] it was > 100 µM (inactive); in assay [12], 40.7 µM (inactive). The GI50 in assay [13] was 18.8 µM (inactive); in [14] it was > 100 µM (inactive); in [15], > 100 µM (inactive); in assay [16], 91 µM (inactive); in assay [17] it was 64 µM (inactive); in assay [18], 33.5 µM (inactive). The GI50 in [19] is > 100 µM (inactive); in [20], 29.2 µM (inactive).
As to `O=C1c2cccnc2-c2nccc3ccnc1c23`, the GI50 in assay [1] is 1.6 µM (inactive); in [2], 0.372 µM (active); in assay [3], 0.0309 µM (active); in [4] it was 1.2 µM (inactive); in assay [5], 0.726 µM (active); in [6], 0.964 µM (active). Besides, the concentration for 50% growth inhibition (GI50) in assay [7] was 0.294 µM (active); in assay [8], 2.16 µM (inactive); in [9], 2.02 µM (inactive); in assay [10], 1.5 µM (inactive); in assay [11], 0.0583 µM (active); in assay [12] it was 0.622 µM (active). The GI50 in [13] was 1.54 µM (inactive); in [14] it was 1.7 µM (inactive); in assay [15], 2.07 µM (inactive); in [16], 0.966 µM (active); in assay [17] it was 0.116 µM (active); in [18], 0.61 µM (active). The GI50 was 0.343 µM (active) in assay [19] and 0.195 µM (active) in assay [20].

For the origin of these results see ChEMBL document CHEMBL1201862, “PubChem BioAssay data set” (2004).
